The results in this text go back to ChEMBL document CHEMBL4376858, “Structure-Activity Relationships of Novel Thiazole-Based Modafinil Analogues Acting at Monoamine Transporters” (J Med Chem, 2020).

What is called IC50 is the midpoint of a concentration-inhibition curve.

In assay [1] the target is Sodium-dependent noradrenaline transporter (Homo sapiens, UniProt P23975). In words: Inhibition of wild type human NET expressed in HEK293 cells assessed as inhibition of [3H]-MPP+ reuptake preincubated for 5 mins followed by [3H]MPP+ addition and measured after 3 mins by liquid scintillation counting analysis. The class given is cell-based.
The target of assay [2] is Sodium-dependent dopamine transporter (Homo sapiens, UniProt Q01959). Nature of the assay: Inhibition of wild type human dopamine transporter expressed in HEK293 cells assessed as inhibition of [3H]dopamine reuptake preincubated for 5 mins followed by [3H]dopamine addition and measured after 1 min by liquid scintillation analysis. The class given is cell-based.
The target of assay [3] is Sodium-dependent serotonin transporter (Homo sapiens, UniProt P31645). It is filed as cell-based, HEK293.
Sequence of Sodium-dependent serotonin transporter (P31645 whole entry): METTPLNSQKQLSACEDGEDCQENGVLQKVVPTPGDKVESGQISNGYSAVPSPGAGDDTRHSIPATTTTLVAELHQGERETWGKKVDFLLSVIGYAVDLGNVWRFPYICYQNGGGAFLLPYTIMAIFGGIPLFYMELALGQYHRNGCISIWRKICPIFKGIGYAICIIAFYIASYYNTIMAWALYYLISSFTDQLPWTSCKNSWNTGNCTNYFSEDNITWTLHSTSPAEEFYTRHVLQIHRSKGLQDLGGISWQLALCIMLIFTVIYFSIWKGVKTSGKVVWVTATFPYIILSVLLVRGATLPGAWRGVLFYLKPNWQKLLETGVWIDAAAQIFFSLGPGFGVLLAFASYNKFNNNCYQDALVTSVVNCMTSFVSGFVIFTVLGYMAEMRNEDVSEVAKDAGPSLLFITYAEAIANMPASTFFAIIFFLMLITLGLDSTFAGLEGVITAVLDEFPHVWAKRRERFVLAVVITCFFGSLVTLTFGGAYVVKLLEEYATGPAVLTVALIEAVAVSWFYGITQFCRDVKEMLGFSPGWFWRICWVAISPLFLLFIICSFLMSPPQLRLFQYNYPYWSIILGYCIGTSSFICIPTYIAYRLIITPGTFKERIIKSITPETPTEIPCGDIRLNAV
Description: Inhibition of wild type human SERT expressed in HEK293 cells assessed as inhibition of [3H]-5HT reuptake preincubated for 5 mins followed by [3H]5HT addition and measured after 1 min by liquid scintillation counting analysis

Sequence of Sodium-dependent dopamine transporter (Q01959 whole entry): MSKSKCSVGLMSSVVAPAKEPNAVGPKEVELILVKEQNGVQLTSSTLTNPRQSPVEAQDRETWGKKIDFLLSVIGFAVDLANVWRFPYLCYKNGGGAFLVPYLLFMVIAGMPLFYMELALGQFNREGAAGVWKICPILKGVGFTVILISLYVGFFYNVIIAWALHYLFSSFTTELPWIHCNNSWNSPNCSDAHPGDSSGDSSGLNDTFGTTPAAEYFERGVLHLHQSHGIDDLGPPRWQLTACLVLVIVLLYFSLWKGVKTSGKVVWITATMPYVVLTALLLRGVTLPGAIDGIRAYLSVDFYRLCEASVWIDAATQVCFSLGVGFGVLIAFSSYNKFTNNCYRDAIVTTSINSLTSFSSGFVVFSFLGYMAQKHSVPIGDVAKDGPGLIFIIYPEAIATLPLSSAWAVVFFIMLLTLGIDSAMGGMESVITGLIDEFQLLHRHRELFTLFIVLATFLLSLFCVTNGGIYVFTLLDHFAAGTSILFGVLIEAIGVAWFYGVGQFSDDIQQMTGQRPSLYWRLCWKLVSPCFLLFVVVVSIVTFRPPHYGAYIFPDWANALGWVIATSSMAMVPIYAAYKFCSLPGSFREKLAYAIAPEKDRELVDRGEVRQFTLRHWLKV
Sequence of Sodium-dependent noradrenaline transporter (P23975 whole entry): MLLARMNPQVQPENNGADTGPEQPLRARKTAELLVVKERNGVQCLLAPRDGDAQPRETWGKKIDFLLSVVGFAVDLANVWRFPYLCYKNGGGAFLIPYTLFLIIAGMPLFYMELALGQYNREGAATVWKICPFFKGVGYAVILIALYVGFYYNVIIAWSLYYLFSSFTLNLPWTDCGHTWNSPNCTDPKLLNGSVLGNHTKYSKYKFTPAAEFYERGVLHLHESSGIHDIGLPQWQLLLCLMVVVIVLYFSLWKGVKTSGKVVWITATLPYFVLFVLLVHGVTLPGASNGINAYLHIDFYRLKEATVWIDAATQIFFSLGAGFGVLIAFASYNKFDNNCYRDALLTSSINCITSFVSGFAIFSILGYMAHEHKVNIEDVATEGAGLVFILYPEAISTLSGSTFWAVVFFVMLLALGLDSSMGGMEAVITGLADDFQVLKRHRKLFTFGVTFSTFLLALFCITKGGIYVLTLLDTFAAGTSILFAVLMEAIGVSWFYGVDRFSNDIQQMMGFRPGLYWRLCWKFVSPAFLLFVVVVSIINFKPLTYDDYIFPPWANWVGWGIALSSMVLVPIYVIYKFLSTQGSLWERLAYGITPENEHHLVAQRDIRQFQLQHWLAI

As to `Cc1nc(C[S+]([O-])C(c2ccccc2)c2ccccc2)sc1C` (centres undefined), the figures for the IC50 in assay [1] (read-out: IC50), in assay [2] (read-out: IC50) and in assay [3] (read-out: IC50) were 107 µM, 33.3 µM and 201 µM, respectively.

With `[O-][S@@+](Cc1cncs1)[C@H](c1ccccc1)c1ccc(C(F)(F)F)cc1`, the IC50 entry in assay [1] (hek293) is “Not Active”; in assay [2] (read-out: IC50), 37.7 µM; in assay [3] (hek293), “Not Active”.

Take `Cc1ccc(C(c2ccc(C)cc2)[S+]([O-])Cc2cncs2)cc1` (stereo in doubt; 34a): the IC50 result was “Not Active” in assay [1] (hek293), 6.8 µM in assay [2] (read-out: IC50) and 264 µM in assay [3] (read-out: IC50).

Turning to `CCCCc1nc(C[S+]([O-])C(c2ccccc2)c2ccccc2)cs1` (centres undefined), the IC50 in assay [1] (read-out: IC50) was 164 µM; in assay [2] (read-out: IC50) it was 13.5 µM; in assay [3] (hek293) it was “Not Active”.

Take `COc1ccc([C@H](c2ccccc2)[S@@+]([O-])Cc2cncs2)cc1`: the values for the 50% inhibitory concentration (IC50) in assay [1] (read-out: IC50), in assay [2] (read-out: IC50) and in assay [3] (hek293) were 196 µM, 3.8 µM and “Not Active”, respectively.

`[O-][S@+](Cc1cncs1)[C@@H](c1ccccc1)c1ccc(Br)cc1`: the half-maximal inhibitory concentration (IC50) in assay [1] (read-out: IC50) is 365 µM; in assay [2] (read-out: IC50), 22.4 µM; in assay [3] (hek293), “Not Active”.

As for `Cc1ccc([C@@H](c2ccccc2)[S@@+]([O-])Cc2cncs2)cc1`, the IC50 result in assay [1] (hek293) was “Not Active”; in assay [2] (read-out: IC50) it was 6 µM; in assay [3] (hek293), “Not Active”.

As for `[O-][S@+](Cc1cncs1)[C@@H](c1ccccc1)c1ccc(Cl)cc1`, the IC50 result in assay [1] (hek293) is “Not Active”; in assay [2] (read-out: IC50), 33 µM; in assay [3] (hek293), “Not Active”.

As for `Cc1ncc(C[S+]([O-])C(c2ccccc2)c2ccccc2)s1` (centres undefined), the IC50 entry was “Not Active” in assay [1] (hek293), 68.1 µM in assay [2] (read-out: IC50) and “Not Active” in assay [3] (hek293).

Take `Cc1ncsc1C[S+]([O-])C(c1ccccc1)c1ccccc1` (centres undefined): the figures for the IC50 result in assay [1] (hek293), in assay [2] (read-out: IC50) and in assay [3] (hek293) were “Not Active”, 44.1 µM and “Not Active”, respectively.

As to `Cc1ccc([C@H](c2ccccc2)[S@+]([O-])Cc2cncs2)cc1`, the IC50 entry in assay [1] (hek293) is “Not Active”; in assay [2] (read-out: IC50), 134 µM; in assay [3] (hek293) it was “Not Active”.

For `[O-][S+](Cc1csc(C2CC2)n1)C(c1ccc(Cl)cc1)c1ccc(Cl)cc1` (centres undefined), the IC50 result in assay [1] (hek293) was “Not Active”; in assay [2] (read-out: IC50) it was 14 µM; in assay [3] (hek293) it was “Not Active”.

As to `[O-][S@@+](Cc1cncs1)C(c1ccc(Cl)cc1)c1ccc(Cl)cc1`, the IC50 in assay [1] (read-out: IC50) is 89.8 µM; in assay [2] (read-out: IC50), 4.1 µM; in assay [3] (hek293) it was “Not Active”.

In the case of `[O-][S+](Cc1cscn1)C(c1ccccc1)c1ccccc1` (racemic), the IC50 result in assay [1] (hek293) is “Not Active”; in assay [2] (read-out: IC50), 6.66 µM; in assay [3] (hek293) it was “Not Active”.

For `[O-][S+](Cc1cscn1)C(c1ccc(F)cc1)c1ccc(F)cc1` (centres undefined), the concentration for half-maximal inhibition (IC50) entry was “Not Active” in assay [1] (hek293), 6.76 µM in assay [2] (read-out: IC50) and “Not Active” in assay [3] (hek293).

As to `Cc1nc(C)c(C[S+]([O-])C(c2ccccc2)c2ccccc2)s1` (centres undefined), the IC50 entry in assay [1] (hek293) is “Not Active”; in assay [2] (read-out: IC50) it was 87.1 µM; in assay [3] (hek293), “Not Active”.

On to `[O-][S@+](Cc1cncs1)[C@H](c1ccccc1)c1ccc(C(F)(F)F)cc1`, for which the IC50 entry in assay [1] (hek293), in assay [2] (hek293) and in assay [3] (hek293) was “Not Active” throughout.

Take `[O-][S@@+](Cc1cncs1)[C@@H](c1ccccc1)c1ccc(F)cc1`: the IC50 in assay [1] (read-out: IC50) was 129 µM; in assay [2] (read-out: IC50), 2 µM; in assay [3] (hek293), “Not Active”.

`Cc1ccc(C(c2ccc(C)cc2)[S+]([O-])Cc2cncs2)cc1` (racemic): the half-maximal inhibitory concentration (IC50) is 215 µM in assay [1] (read-out: IC50) and 10.6 µM in assay [2] (read-out: IC50).

Regarding `Cc1ccc(C(c2ccc(C)cc2)[S+]([O-])Cc2cncs2)cc1` (stereo in doubt; 34b), the results for the IC50 in assay [2] (read-out: IC50) and in assay [3] (hek293) were 356 µM and “Not Active”, respectively.

In the case of `[O-][S+](Cc1cnc(C23CC4CC(CC(C4)C2)C3)s1)C(c1ccccc1)c1ccccc1` (centres undefined), the IC50 result in assay [3] (hek293) was “Not Active”.
